Source: patent US10913736B2 (UNIVERSITY OF WASHINGTON, priority 2014, dated 2021)
Values joined by “and” are separate entries in the source; they are usually repeats but may differ in a detail not shown here. Equal values may be shown once. Read-outs that look alike come from different tables or passages of the source.

What was measured:
MetRS (T. brucei) = MetRS (T. brucei) (Trypanosoma brucei brucei, UniProt Q38C91); assay: MetRS (T. brucei) ATP depletion assay using Kinase-Glo; assay type: biochemical
MetRS (T. brucei), sequence (Q38C91 entry or part of it): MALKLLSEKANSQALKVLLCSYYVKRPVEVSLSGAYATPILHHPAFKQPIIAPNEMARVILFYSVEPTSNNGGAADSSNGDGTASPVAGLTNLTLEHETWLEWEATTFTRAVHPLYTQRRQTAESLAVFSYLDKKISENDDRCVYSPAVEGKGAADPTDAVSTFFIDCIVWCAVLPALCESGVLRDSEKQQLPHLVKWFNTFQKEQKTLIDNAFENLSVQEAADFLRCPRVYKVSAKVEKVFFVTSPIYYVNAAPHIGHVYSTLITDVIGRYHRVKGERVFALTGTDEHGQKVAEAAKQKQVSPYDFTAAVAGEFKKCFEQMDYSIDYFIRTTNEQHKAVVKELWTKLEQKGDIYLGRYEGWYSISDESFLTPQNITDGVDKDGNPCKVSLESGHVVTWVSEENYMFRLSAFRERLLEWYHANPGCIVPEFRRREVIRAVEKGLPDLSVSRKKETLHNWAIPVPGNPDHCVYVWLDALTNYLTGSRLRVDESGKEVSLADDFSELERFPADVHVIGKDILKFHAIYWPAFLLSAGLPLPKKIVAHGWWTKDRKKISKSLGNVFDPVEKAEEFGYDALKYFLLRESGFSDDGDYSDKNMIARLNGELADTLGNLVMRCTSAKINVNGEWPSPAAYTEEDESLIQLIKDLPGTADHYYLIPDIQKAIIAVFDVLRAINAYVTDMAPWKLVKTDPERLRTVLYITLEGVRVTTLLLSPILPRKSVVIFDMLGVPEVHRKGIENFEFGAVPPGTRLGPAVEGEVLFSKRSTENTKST

T. brucei = assay: Growth inhibition assay of T. brucei cell cultures (Alamar Blue, 48 h); assay type: cell-based
T. cruzi = T. cruzi growth inhibition EC50; assay type: cell-based; conditions: Trypanosoma cruzi; read-out: C) T. cruzi EC50
MetRS (S. aureus) = MetRS (S. aureus) (Staphylococcus aureus, UniProt Q5HII6); assay: biochemical; conditions: ATP depletion, Kinase-Glo; read-out: H) MetRS (S. aureus) ATP depletion assay using Kinase-Glo with modified cpd dilution method, IC50
MetRS (S. aureus), sequence (Q5HII6 whole entry): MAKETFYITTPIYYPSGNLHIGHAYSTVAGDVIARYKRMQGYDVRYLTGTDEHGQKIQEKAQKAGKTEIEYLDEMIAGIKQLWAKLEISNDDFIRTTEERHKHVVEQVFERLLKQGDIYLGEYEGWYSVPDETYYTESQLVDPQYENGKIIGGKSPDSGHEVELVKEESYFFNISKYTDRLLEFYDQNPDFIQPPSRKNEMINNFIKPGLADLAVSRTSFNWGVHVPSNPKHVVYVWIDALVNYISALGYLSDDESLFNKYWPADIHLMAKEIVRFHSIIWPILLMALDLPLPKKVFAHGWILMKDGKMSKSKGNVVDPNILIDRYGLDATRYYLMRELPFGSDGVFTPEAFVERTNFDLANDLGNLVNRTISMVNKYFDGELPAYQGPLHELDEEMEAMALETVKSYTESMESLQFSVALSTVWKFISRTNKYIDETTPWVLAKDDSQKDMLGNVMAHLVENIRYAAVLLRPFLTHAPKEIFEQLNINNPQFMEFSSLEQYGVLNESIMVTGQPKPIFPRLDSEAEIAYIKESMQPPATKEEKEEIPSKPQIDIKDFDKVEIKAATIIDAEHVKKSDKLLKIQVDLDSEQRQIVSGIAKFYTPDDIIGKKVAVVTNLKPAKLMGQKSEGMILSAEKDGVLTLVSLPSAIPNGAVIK

L. amaz = L. amaz growth inhibition EC50; assay type: cell-based; conditions: read-out: F) L. amaz EC50
[1] = Trypanosoma brucei; read-out: B) T. brucei EC50

| SMILES | IC50 (MetRS (T. brucei)) | EC50 (T. brucei; [1]) [µM] | EC50 (T. cruzi) [µM] | IC50 (MetRS (S. aureus)) [µM] | EC50 (L. amaz) [µM] | EC50 (T. brucei; read-out: B) T. brucei EC50) |
| --- | --- | --- | --- | --- | --- | --- |
| CCOc1c(Br)cc(Br)cc1CN[C@H]1CCCN(c2nc3nc(Cl)ccc3[nH]2)C1 [Compound 1910, (S)-1-(5-chloro-1H-imidazo[4,5-b]pyridin-2-yl)-N-(3,5-dibromo-2-ethoxybenzyl)piperidin-3-amine] | 0.019 µM | 0.0395 | 0.934 | 0.022 |  |  |
| COc1ccc(Oc2cc(NCc3nc4ccc(F)nc4[nH]3)nc(Cl)n2)c(Cl)c1 [Compound 1796, 6-(2-chloro-4-methoxyphenoxy)-2-chloro-N-((5-fluoro-3H-imidazo[4,5-b]pyridin-2-yl)methyl)pyrimidin-4-amine] | 0.017 µM |  | 0.521 | 0.055 | > 1 |  |
| CN(CCN[C@@H]1CCNc2c(Cl)cc(Cl)cc21)c1nc2nc(F)ccc2[nH]1 [Compound 1919, (R)—N1-(6,8-dichloro-1,2,3,4-tetrahydroquinolin-4-yl)-N2-(5-fluoro-1H-imidazo[4,5-b]pyridin-2-yl)-N2-methylethane-1,2-diamine] | 0.015 µM | 0.00631 | 0.0888 | 0.328 | 1.64 | 0.00945 µM |
| Fc1ccc2[nH]c(N3CCC[C@H](NCc4cc(Cl)cc(Cl)c4)C3)nc2n1 [Compound 1900, (S)—N-(3,5-dichlorobenzyl)-1-(5-fluoro-1H-imidazo[4,5-b]pyridin-2-yl)piperidin-3-amine] | 0.027 µM | 0.128 | 2.24 | 0.303 |  | > 0.2 µM |
| CN(CCNCc1cc(Cl)cc(Cl)c1)c1nc2nc(F)ccc2[nH]1 [Compound 1913, N-(2-{[(3,5-dichlorophenyl)methyl]amino}ethyl)-5-fluoro-N-methyl-1H-imidazo[4,5-b]pyridin-2-amine] | 0.026 µM | 0.113 |  | 0.691 | > 1 |  |
| Clc1cc(Cl)cc(CNCC2CCCN2c2nc3nc(Cl)ccc3[nH]2)c1 (stereo not drawn) [Compound 1916, 1-(1-(5-chloro-1H-imidazo[4,5-b]pyridin-2-yl)pyrrolidin-2-yl)-N-(3,5-dichlorobenzyl)methanamine] | 0.058 µM | 0.48 |  |  | 9.55 |  |
| Clc1cc(Cl)cc(CNC2CCCN(c3nc4nc(Cl)ccc4[nH]3)C2)c1 (stereo not drawn) [Compound 1811, 1-(5-chloro-1H-imidazo[4,5-b]pyridin-2-yl)-N-(3,5-dichlorobenzyl) piperidin-3-amine] | 0.008 µM | 0.0818 | 2.51 | 0.709 |  |  |
| Fc1ccc2[nH]c(N3CCCC(NCc4cc(Cl)cc(Cl)c4)C3)nc2n1 (stereo not drawn) [Compound 1886, N-(3,5-dichlorobenzyl)-1-(5-fluoro-1H-imidazo[4,5-b]pyridin-2-yl) piperidin-3-amine] | 0.014 µM | 0.299 | 5.16 | 0.505 |  |  |
| O=C(NCc1nc2ccc(F)nc2[nH]1)OCCc1ccc(Cl)cc1Cl [Compound 1707, 2-(2,4-dichlorophenyl)ethyl N-({5-fluoro-3H-imidazo[4,5-b]pyridin-2-yl}methyl)carbamate] | 0.026 µM | 1.61 | > 10 | 0.037 | > 1 |  |
| Clc1cc(Cl)cc(NCC2CCCN(c3nc4nc(Cl)ccc4[nH]3)C2)c1 (stereo not drawn) [Compound 1862, 3,5-dichloro-N-((1-(5-chloro-1H-imidazo[4,5-b]pyridin-2-yl)piperidin-3-yl)methyl)aniline] | 0.031 µM | 0.343 | 4.92 | 0.754 |  |  |
| Clc1cc(Cl)cc(CNCCNc2nc3ccc(Cl)nc3[nH]2)c1 [Compound 1849, [2-({5-chloro-3H-imidazo[4,5-b]pyridin-2-yl}amino)ethyl][(3,5-dichlorophenyl)methyl]amine] | 0.033 µM | 0.0607 | 1.81 | 3.11 |  |  |
| COc1ccc(Oc2nc(NCc3nc4ccc(F)nc4[nH]3)nc(Oc3ccc(OC)cc3Cl)n2)c(Cl)c1 [Compound 1884, 4,6-bis(2-chloro-4-methoxyphenoxy)-N-({5-fluoro-3H-imidazo[4,5-b]pyridin-2-yl}methyl)-1,3,5-triazin-2-amine] | 0.024 µM | 0.0559 | 0.773 | 0.122 |  |  |
| Clc1cc(Cl)cc(CN[C@H]2CCCN(c3nc4nc(Cl)ccc4[nH]3)C2)c1 [Compound 1856, (S)-1-(5-chloro-1H-imidazo[4,5-b]pyridin-2-yl)-N-(3,5-dichlorobenzyl) piperidin-3-amine] | 0.019 µM | 0.0387 | 1.47 | 0.365 | 4.35 |  |
| FC(F)(CNCc1cc(Cl)cc(Cl)c1)CNc1nc2cccnc2[nH]1 [Compound 1708, [(3,5-dichlorophenyl)methyl][2,2-difluoro-3-({3H-imidazo[4,5-b]pyridin-2-yl}amino)propyl]amme] | 0.011 µM | 1.56 | > 5 | 0.088 | > 1 | 0.893 µM |
| COc1ccc(Oc2ccnc(NCc3nc4ccccc4[nH]3)c2)c(Cl)c1 [Compound 1933, N-((1H-benzo[d]imidazol-2-yl)methyl)-4-(2-chloro-4-methoxyphenoxy)pyridin-2-amine] | 0.022 µM | 0.102 | 1.71 | 0.04 |  |  |
| COc1ccc(Oc2cc(NCc3nc4ccc(F)nc4[nH]3)nc(N3CCN(c4cnccn4)CC3)n2)c(Cl)c1 [Compound 1797, 6-(2-chloro-4-methoxyphenoxy)-N-((5-fluoro-3H-imidazo[4,5-b]pyridin-2-yl)methyl)-2-(4-(pyrazin-2-yl)piperazin-1-yl)pyrimidin-4-amine] | 0.023 µM |  | 0.432 | 0.002 | > 1 |  |
| COc1ccc(Oc2nc(NCc3nc4ccc(F)nc4[nH]3)nc(NCc3nc4ccc(F)nc4[nH]3)n2)c(Cl)c1 [Compound 1883, 6-(2-chloro-4-methoxyphenoxy)-2-N,4-N-bis({5-fluoro-3H-imidazo[4,5-b]pyridin-2-yl}methyl)-1,3,5-triazine-2,4-diamine] | 0.039 µM | 5.62 | 17.4 | 0.333 |  | 3.67 µM |
| C[C@@H](Cc1nc2ccc(Cl)cc2[nH]1)NCc1cc(Cl)cc(Cl)c1 [Compound 1805, [(2S)-1-(6-chloro-1H-1,3-benzodiazol-2-yl)propan-2-yl][(3,5-dichlorophenyl)methyl]amine] | 0.056 µM and 0.027 µM | 1.69 | 5.61 | > 1 |  |  |
| CN(CCN[C@@H]1CCNc2c(Cl)cc(Cl)cc21)c1nc2nc(Cl)ccc2[nH]1 [Compound 1917, 5-chloro-N-(2-{[(4R)-6,8-dichloro-1,2,3,4-tetrahydroquinolin-4-yl]amino}ethyl)-N-methyl-3H-imidazo[4,5-b]pyridin-2-amine] | 0.021 µM |  | 0.0157 | 0.137 | 0.663 |  |
| CN(CCN(CCN(C)c1nc2nc(F)ccc2[nH]1)[C@@H]1CCNc2c(Cl)cc(Cl)cc21)c1nc2nc(F)ccc2[nH]1 [Compound 1939, (R)—N1-(6,8-dichloro-1,2,3,4-tetrahydroquinolin-4-yl)-N2-(5-fluoro-1H-imidazo[4,5-b]pyridin-2-yl)-N1-(2-((5-fluoro-1H-imidazo[4,5-b]pyridin-2-yl)(methyl)amino)ethyl)-N2-methylethane-1,2-diamine] | 0.073 µM |  | 0.176 | 0.271 |  |  |
| CC(=O)N(CCN(C)c1nc2nc(Cl)ccc2[nH]1)[C@@H]1CCNc2c(Cl)cc(Cl)cc21 [Compound 1938, N-[2-({5-chloro-3H-imidazo[4,5-b]pyridin-2-yl}(methyl)amino)ethyl]-N-[(4R)-6,8-dichloro-1,2,3,4-tetrahydroquinolin-4-yl]acetamide] | 0.036 µM |  | 0.266 | 1.26 |  |  |
| COc1c(Cl)cc(Cl)cc1CN[C@H]1CCCN(c2nc3nc(Cl)ccc3[nH]2)C1 [Compound 1911, (S)-1-(5-chloro-1H-imidazo[4,5-b]pyridin-2-yl)-N-(3,5-dichloro-2-methoxybenzyl)piperidin-3-amine] | 0.021 µM | 0.357 |  |  | 5.15 |  |
| Clc1ccc2[nH]c([C@H]3CCCN(Cc4ccc(Cl)c(Cl)c4)C3)nc2n1 [Compound 1870, (S)-5-chloro-2-(1-(3,4-dichlorobenzyl)piperidin-3-yl)-1H-imidazo[4,5-b]pyridine] | 0.054 µM | 0.458 | 2.61 | 0.837 |  |  |
| CC(Cc1nc2ccc(Cl)cc2[nH]1)NCc1cc(Cl)cc(Cl)c1 (stereo not drawn) [Compound 1794, [1-(5-chloro-1H-1,3-benzodiazol-2-yl)propan-2-yl][(3,5-dichlorophenyl)methyl]amine] | 0.031 µM and 0.017 µM and 0.072 µM and 0.07 µM | 1.33 | 5.23 | 22.6 |  | 1.87 µM and 1.84 µM |
| CC(=O)N(CCN(C)c1nc2ccc(Cl)nc2[nH]1)Cc1cc(Cl)cc(Cl)c1 [Compound 1926, N-(3,5-dichlorobenzyl)-N-(2-(5-chloro-N-methyl-1H-imidazo[4,5-b]pyridin-2-ylamino)ethyl)acetamide] | 0.02 µM | 0.0755 | 1.33 | 0.172 |  |  |
| CCN(CCNCc1cc(Cl)cc(Cl)c1)c1nc2nc(Cl)ccc2[nH]1 [Compound 1949, 5-chloro-N-(2-{[(3,5-dichlorophenyl)methyl]amino}ethyl)-N-ethyl-3H-imidazo[4,5-b]pyridin-2-amine] | 0.018 µM | 0.0799 | 1.31 | 0.606 |  | 0.0855 µM |
| Clc1cc(Br)cc(CN[C@H]2CCCN(c3nc4nc(Cl)ccc4[nH]3)C2)c1 [Compound 1912, (S)—N-(3-bromo-5-chlorobenzyl)-1-(5-chloro-1H-imidazo[4,5-b]pyridin-2-yl)piperidin-3-amine] | 0.008 µM | 0.0706 | 2.25 |  | 7.73 |  |
